The values below are quoted from earlier work in patent publication US8367112B2, “Nanoparticulate carverdilol formulations” (Alkermes Pharma Ireland Limited, priority 2006, dated 2013).

For data set [1] the following is noted: in vivo, po.

Like-named read-outs stand apart in the source and are kept apart here.

Turning to `COc1ccccc1OCCNC[C@H](O)COc1cccc2[nH]c3ccccc3c12` (single isomer, unassigned) [S(−)-enantiomer, S(−)-carvedilol], the “apparent mean terminal elimination half-life” value in data set [1] is 7 to 11 h.
As for `COc1ccccc1OCCNCC(O)COc1cccc2[nH]c3ccccc3c12` (racemic) [carvedilol, (±)-1-(Carbazol-4-yloxy)-3-[[2-(o-methoxyphenoxy)ethyl]amino]-2-propanol], the solubility entry (95% ethanol) is on record as “sparingly soluble”; the solubility result (dimethylsulfoxide) is on record as “freely soluble”; the solubility result (ethyl ether) is recorded as “slightly soluble”; the solubility result (gastric fluid (simulated, TS, pH 1.1)) is “practically insoluble”; the solubility entry (intestinal fluid (simulated, TS without pancreatin, pH 7.5)) was “practically insoluble”; the solubility result (isopropanol) is “sparingly soluble”. The solubility entry runs as follows: (methanol) “soluble”; (methylene chloride) “soluble”; (water) “practically insoluble”.
Regarding `COc1ccccc1OCCNC[C@@H](O)COc1cccc2[nH]c3ccccc3c12` [R(+)-carvedilol], in data set [1], the “apparent mean terminal elimination half-life” value is 5 to 9 h and the “plasma levels relative to S(−)-carvedilol” value is on record as 2-3 times higher.
